From patent US3957978A, “Phosphonium anti-parasitics” (American Cyanamid Company, priority 1975, dated 1976)
Read-outs that look alike come from different tables or passages of the source.

Tested on: Nematospiroides dubius
Assay: Evaluation (Efficacy) Test in Mice, Nematospiroides dubius
Assay type: in vivo
Details: for inhibition in vivo at 0.003 %: 0.003 % diet; for inhibition in vivo at 0.05 %: 0.05 % diet; for inhibition in vivo at 0.1 %: 0.1 % diet
Description: The primary target parasite of this test is Nematospiroides dubius (Family: Heligmosomidae), which is phylogenetically related to certain economically important parasites of domestic and farm animals. Mice are orally inoculated with 20 to 30 infective N. dubius larvae. Mixed infections are obtained by subsequent inoculation with Aspicularis tetraptera and Hymenolepis nana. Eighteen days after inoculation the mice are divided into groups of four. Each group receives one compound at a specified dose rate, either as a single gavage dose or fed continually in the feed. Four groups of five mice each are utilized as infected, untreated controls. […] Those mice receiving single oral doses (SOD) or a single subcutaneous injection (Sc) of 5 mg./kg. to 100 mg./kg. of animal body weight of the compound under test are treated 22 days after inoculation. Eight days after start of treatment (drug diet) and 4 days post treatment (single dose SOD or Sc), the mice are necropsied, the worms recovered and counted. Percent efficacy for Nematospiroides is calculated using the formula: % Efficacy Equals [formula]
The diet used in the test procedures is a standard commercial mouse chow containing meat and bone meal, dried skimmed milk, wheat germ meal, fish meal, animal liver meal, dried beet pulp, ground extended corn, oat middlings, soybean meal, dehydrated alfalfa meal, cane molasses. animal fat preserved with BHA, vitamin B-12 supplement, calcium panthotenate, choline chloride, folic acid, riboflavin supplement, brewer's dried yeast, thiamine, niacin, vitamin A supplement, D activated plant sterol, vitamin E supplement, dicalcium phosphate, iodized salt, ferric ammonium citrate, iron oxide, manganous oxide, cobalt carbonate, copper oxide and zinc oxide; and the desired level of test compound.
When the drug is administered as a single oral dose, the drug is weighed and suspended in 0.2% agar, thoroughly mixed and orally introduced at the required volume.

[1] = drug diet, 0.006 % diet, 7 days
[2] = drug diet, 0.0125 % diet, 7 days
[3] = Heligmosomoides polygyrus, po, 168 h, drug diet, 0.006 % diet, 7 days, read-out: % Efficacy N.d.
[4] = Heligmosomoides polygyrus, po, 168 h, drug diet, 0.0125 % diet, 7 days, read-out: % Efficacy N.d.
[5] = Heligmosomoides polygyrus, po, 168 h, drug diet, 0.025 % diet, 7 days, read-out: % Efficacy N.d.
[6] = Heligmosomoides polygyrus, po, single oral dose, read-out: % Efficacy N.d.
[7] = Heligmosomoides polygyrus, po, single oral dose, 5 mg/kg, read-out: % Efficacy N.d.
[8] = Heligmosomoides polygyrus, po, single oral dose, 10 mg/kg, read-out: % Efficacy N.d.
[9] = Heligmosomoides polygyrus, sc, subcutaneous, 10 mg/kg, read-out: % Efficacy N.d.
[10] = Heligmosomoides polygyrus, sc, subcutaneous, 25 mg/kg, read-out: % Efficacy N.d.
[11] = Heligmosomoides polygyrus, po, 168 h, drug diet, 7 days, read-out: % Efficacy N.d.
[12] = Heligmosomoides polygyrus, po, single oral dose, 25 mg/kg, read-out: % Efficacy N.d.
[13] = single oral dose, 10 mg/kg, dosage weight is that of the cation
[14] = single oral dose, 25 mg/kg, dosage weight is that of the cation

| Compound | % Efficacy N.d. [1] | % Efficacy N.d. [2] | inhibition in vivo at 0.006 % [3] | inhibition in vivo at 0.0125 % [4] | inhibition in vivo at 0.025 % [5] | inhibition in vivo at 50 mg/kg [6] | inhibition in vivo at 25 mg/kg [12] | inhibition in vivo at 100 mg/kg [6] | other results |
| --- | --- | --- | --- | --- | --- | --- | --- | --- | --- |
| C(=P(c1ccccc1)(c1ccccc1)c1ccccc1)[P+](c1ccccc1)(c1ccccc1)c1ccccc1.[I-] [Type II, R1 Phenyl, X I, Triphenyl[(triphenylphosphoranylidene)methyl]-phosphonium Iodide] | 89% | 100% | – | – | – | – | – | – | % Efficacy N.d. (single oral dose, 5 mg/kg): 26%; % Efficacy N.d. (single oral dose, 10 mg/kg): 67%; % Efficacy N.d. (single oral dose, 25 mg/kg): 91% |
| IC(=P(c1ccccc1)(c1ccccc1)c1ccccc1)[P+](c1ccccc1)(c1ccccc1)c1ccccc1 [Type II, R2 I, X I] | – | – | 54% | 98% | 100% | 70% | – | – | – |
| C(=P(c1ccccc1)(c1ccccc1)c1ccccc1)[P+](c1ccccc1)(c1ccccc1)c1ccccc1.[Br-] [Type II, R1 Phenyl, X Br, Triphenyl[(triphenylphosphoranylidene)methyl]-phosphonium Bromide] | 94% | 100% | – | – | – | – | – | – | inhibition in vivo at 5 mg/kg [7]: 32.5%; inhibition in vivo at 10 mg/kg [8]: 65%; inhibition in vivo at 10 mg/kg [9]: 74%; inhibition in vivo at 25 mg/kg [10]: 94%; % Efficacy N.d. (single oral dose, 25 mg/kg): 89% |
| CC(=P(c1ccccc1)(c1ccccc1)c1ccccc1)[P+](c1ccccc1)(c1ccccc1)c1ccccc1 [Type II, R2 Methyl, X I, Triphenyl[1-(triphenylphosphoranylidene)ethyl]-phosphonium Iodide] | – | – | 98% | 99% | – | – | 98% | – | inhibition in vivo at 0.003 % [11]: 57%; inhibition in vivo at 5 mg/kg [7]: 65%; inhibition in vivo at 10 mg/kg [8]: 96%; inhibition in vivo at 5 mg/kg (Heligmosomoides polygyrus, sc, subcutaneous, 5 mg/kg, read-out: % Efficacy N.d.): 80%; inhibition in vivo at 10 mg/kg [9]: 95%; inhibition in vivo at 25 mg/kg [10]: 100% |
| C(=P(c1ccccc1)(c1ccccc1)c1ccccc1)[P+](c1ccccc1)(c1ccccc1)c1ccccc1.[Cl-] [Type II, R1 Phenyl, X Cl, Triphenyl[(triphenylphosphoranylidene)methyl]-phosphonium Chloride] | 91% | 100% | – | – | – | – | 96% | – | % Efficacy N.d. (single oral dose, 10 mg/kg): 51% |
| CCCCCCC(=P(c1ccccc1)(c1ccccc1)c1ccccc1)[P+](c1ccccc1)(c1ccccc1)c1ccccc1 [Type II, R2 n-Hexyl, X Br] | – | – | 58% | 79% | 100% | 61% | 39% | 94% | – |
| C(=P(c1ccccc1)(c1ccccc1)c1ccccc1)[P+](c1ccccc1)(c1ccccc1)c1ccccc1 [Type II, R1 Phenyl, X not printed] | 85% | 100% | – | – | – | – | – | – | inhibition in vivo at 5 mg/kg (Heligmosomoides polygyrus, po, single oral dose, 5 mg/kg, dosage weight is that of the cation, read-out: % Efficacy N.d.): 49%; % Efficacy N.d. [13]: 63%; % Efficacy N.d. [14]: 94% |
| COc1cccc(CC(=P(c2ccccc2)(c2ccccc2)c2ccccc2)[P+](c2ccccc2)(c2ccccc2)c2ccccc2)c1 [Type II, R2 m-methoxybenzyl, X Cl] | – | – | – | 58% | 88% | 58% | – | 76% | inhibition in vivo at 0.05 % [11]: 100% |
| c1ccc([P+](C[P+](c2ccccc2)(c2ccccc2)c2ccccc2)(c2ccccc2)c2ccccc2)cc1 [Type I, R1 Phenyl, X Cl, methylenebis triphenylphosphonium dichloride] | – | – | 85% | 100% | – | – | 96.5% | – | % Efficacy N.d. (single oral dose, 5 mg/kg): 85%; % Efficacy N.d. (single oral dose, 10 mg/kg): 84% |
| CSCC(=P(c1ccccc1)(c1ccccc1)c1ccccc1)[P+](c1ccccc1)(c1ccccc1)c1ccccc1 [Type II, R2 CH3 --S--CH2 --, X Cl, [2-(methylthio)-1-(triphenylphosphoranylidene)-ethyl]triphenylphosphonium Chloride] | – | – | – | – | 56% | – | – | – | inhibition in vivo at 0.05 % [11]: 65%; inhibition in vivo at 0.1 % [11]: 97% |
| C(=P(c1ccccc1)(c1ccccc1)c1ccccc1)[P+](c1ccccc1)(c1ccccc1)c1ccccc1 [Type II, R1 Phenyl, X Br^-.CuBr2] | – | 51% | – | – | 100% | – | – | – | inhibition in vivo at 10 mg/kg (Heligmosomoides polygyrus, po, single oral dose, 10 mg/kg, dosage weight is that of the cation, read-out: % Efficacy N.d.): 43%; inhibition in vivo at 25 mg/kg (Heligmosomoides polygyrus, po, single oral dose, 25 mg/kg, dosage weight is that of the cation, read-out: % Efficacy N.d.): 76% |
| CCC(=P(c1ccccc1)(c1ccccc1)c1ccccc1)[P+](c1ccccc1)(c1ccccc1)c1ccccc1 [Type II, R2 Ethyl, X I] | – | – | 46% | 74% | 100% | 85% | 75% | – | inhibition in vivo at 10 mg/kg [8]: 68% |
| CCCC(=P(c1ccccc1)(c1ccccc1)c1ccccc1)[P+](c1ccccc1)(c1ccccc1)c1ccccc1 [Type II, R2 n-Propyl, X I] | – | – | 86% | 88% | 100% | 100% | 63% | – | inhibition in vivo at 0.003 % [11]: 50%; inhibition in vivo at 10 mg/kg [8]: 42% |
| c1ccc([P+](C[P+](c2ccccc2)(c2ccccc2)c2ccccc2)(c2ccccc2)c2ccccc2)cc1 [Type I, R1 Phenyl, X Br, Methylenebis Triphenylphosphonium Dibromide] | 78% | – | – | – | 100% | – | – | – | inhibition in vivo at 0.125 % (Heligmosomoides polygyrus, po, 168 h, drug diet, 0.125 % diet, 7 days, read-out: % Efficacy N.d.): 94%; inhibition in vivo at 10 mg/kg [9]: 42%; inhibition in vivo at 25 mg/kg [10]: 84%; % Efficacy N.d. (single oral dose, 5 mg/kg): 49%; % Efficacy N.d. (single oral dose, 10 mg/kg): 51.5%; % Efficacy N.d. (single oral dose, 25 mg/kg): 95.5% |
| Cc1ccc([P+](C[P+](c2ccccc2)(c2ccccc2)c2ccc(C)cc2)(c2ccccc2)c2ccccc2)cc1 [Type I, R1 p-tolyl, X Br, Methylenebis(diphenyl-p-tolyl) Phosphonium Dibromide] | – | – | – | – | – | 57% | – | 75% | inhibition in vivo at 0.1 % [11]: 57% |
| c1ccc(CC(=P(c2ccccc2)(c2ccccc2)c2ccccc2)[P+](c2ccccc2)(c2ccccc2)c2ccccc2)cc1 [Type II, R2 Benzyl, X Br] | – | – | – | 89% | 96% | 100% | 72% | – | inhibition in vivo at 0.05 % [11]: 100% |
| C(=P(c1ccccc1)(c1ccccc1)c1ccccc1)[P+](c1ccccc1)(c1ccccc1)c1ccccc1 [Type II, R1 Phenyl, X 2,6-Diiodo-4-nitrophenol] [Triphenyl[(triphenylphosphoranylidene)methyl]-phosphonium-2,6-diiodo-4-nitrophenolate] | 41% | 86.5% | – | – | – | – | – | – | % Efficacy N.d. (drug diet, 0.025 % diet, 7 days): 99.5%; % Efficacy N.d. (single oral dose, 5 mg/kg, dosage weight is that of the cation): 36.7%; % Efficacy N.d. [13]: 44.7%; % Efficacy N.d. [14]: 88.5% |
| Cc1ccc(P(=C[P+](c2ccccc2)(c2ccccc2)c2ccc(C)cc2)(c2ccccc2)c2ccccc2)cc1 [Type II, R1 p-tolyl, X Br] | – | – | – | – | – | 36% | – | 89% | inhibition in vivo at 0.1 % [11]: 53% |
| Cc1ccc(P(=C[P+](c2ccccc2)(c2ccccc2)c2ccccc2)(c2ccccc2)c2ccccc2)cc1 | – | – | – | – | – | 31% | – | 67% | inhibition in vivo at 0.05 % [11]: 59%; inhibition in vivo at 0.1 % [11]: 67% |
| c1ccc(C[P+](C[P+](Cc2ccccc2)(c2ccccc2)c2ccccc2)(c2ccccc2)c2ccccc2)cc1 [Type I, R1 Benzyl, X Br, Methylenebis(benzyldiphenyl)phosphonium Dibromide] | – | – | – | – | – | 79% | – | 80% | inhibition in vivo at 0.05 % [11]: 73% |
